According to ChEMBL document CHEMBL1909046, “DrugMatrix in vitro pharmacology data”:

What was measured:
[1] = target: T1, Neuropeptide Y receptor type 2 (Homo sapiens, UniProt P49146); assay type: cell membranes, Membrane; conditions: kan-ts; note: in other assays of this panel Not Active means under 50% inhibition at 10 µM
T1 sequence (P49146 whole entry): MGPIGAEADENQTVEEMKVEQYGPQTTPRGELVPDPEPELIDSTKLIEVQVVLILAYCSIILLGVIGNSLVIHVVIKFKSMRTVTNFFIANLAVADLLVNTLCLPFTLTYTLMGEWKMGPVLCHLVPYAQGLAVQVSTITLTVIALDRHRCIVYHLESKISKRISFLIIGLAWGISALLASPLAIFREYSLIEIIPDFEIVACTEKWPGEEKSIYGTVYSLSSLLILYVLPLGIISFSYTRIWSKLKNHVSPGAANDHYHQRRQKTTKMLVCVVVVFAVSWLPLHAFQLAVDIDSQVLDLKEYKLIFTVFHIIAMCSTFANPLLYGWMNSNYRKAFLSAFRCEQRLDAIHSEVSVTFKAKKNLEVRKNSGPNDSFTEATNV

[2] = DRUGMATRIX: Nicotinic Acetylcholine radioligand binding (ligand: [125I] Epibatidine); assay type: cell membranes, Membrane; conditions: imr-32; Not Active = under 50% inhibition at 10 µM
[3] = target: Epidermal growth factor receptor (Homo sapiens, UniProt P00533); assay: DRUGMATRIX: Protein Tyrosine Kinase, EGF Receptor enzyme inhibition (substrate: Poly(Glu:Tyr)); assay type: cell-based, Insect cells; conditions: insect cells; Not Active = under 50% inhibition at 10 µM
Chain of Epidermal growth factor receptor (P00533 whole entry): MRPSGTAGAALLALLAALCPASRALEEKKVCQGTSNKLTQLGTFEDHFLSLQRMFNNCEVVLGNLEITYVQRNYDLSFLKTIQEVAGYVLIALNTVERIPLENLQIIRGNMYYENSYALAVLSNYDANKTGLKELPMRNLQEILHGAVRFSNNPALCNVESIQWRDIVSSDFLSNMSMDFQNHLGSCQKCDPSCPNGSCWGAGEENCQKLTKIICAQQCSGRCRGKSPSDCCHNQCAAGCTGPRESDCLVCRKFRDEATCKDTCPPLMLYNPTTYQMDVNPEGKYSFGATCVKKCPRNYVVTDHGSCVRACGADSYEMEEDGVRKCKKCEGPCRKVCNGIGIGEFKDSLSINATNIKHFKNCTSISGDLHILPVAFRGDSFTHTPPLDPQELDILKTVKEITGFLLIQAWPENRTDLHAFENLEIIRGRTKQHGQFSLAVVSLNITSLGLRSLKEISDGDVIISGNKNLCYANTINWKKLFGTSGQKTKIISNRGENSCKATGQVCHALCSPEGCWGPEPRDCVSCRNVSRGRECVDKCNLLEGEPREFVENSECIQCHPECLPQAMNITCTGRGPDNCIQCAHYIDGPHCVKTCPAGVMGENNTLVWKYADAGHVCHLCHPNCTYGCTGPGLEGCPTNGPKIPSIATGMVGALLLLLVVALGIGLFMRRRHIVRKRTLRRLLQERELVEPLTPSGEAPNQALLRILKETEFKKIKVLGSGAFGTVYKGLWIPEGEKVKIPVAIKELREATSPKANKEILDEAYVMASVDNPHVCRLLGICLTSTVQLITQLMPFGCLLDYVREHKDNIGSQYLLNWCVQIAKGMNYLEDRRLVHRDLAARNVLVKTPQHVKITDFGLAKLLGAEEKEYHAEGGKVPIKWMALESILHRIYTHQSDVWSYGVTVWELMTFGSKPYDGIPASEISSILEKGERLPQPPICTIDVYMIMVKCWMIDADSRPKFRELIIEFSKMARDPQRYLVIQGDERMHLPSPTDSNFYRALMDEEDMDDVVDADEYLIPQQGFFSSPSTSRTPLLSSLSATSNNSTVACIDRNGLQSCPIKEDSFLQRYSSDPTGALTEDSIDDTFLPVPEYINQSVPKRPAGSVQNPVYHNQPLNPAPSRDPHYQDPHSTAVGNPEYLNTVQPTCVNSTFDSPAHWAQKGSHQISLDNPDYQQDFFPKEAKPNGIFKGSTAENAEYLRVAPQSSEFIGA

[4] = target: Voltage-gated inwardly rectifying potassium channel KCNH2 (Homo sapiens, UniProt Q12809); conditions: hek293; note: in other assays of this panel Not Active means under 50% inhibition at 10 µM
Chain of Voltage-gated inwardly rectifying potassium channel KCNH2 (Q12809 whole entry): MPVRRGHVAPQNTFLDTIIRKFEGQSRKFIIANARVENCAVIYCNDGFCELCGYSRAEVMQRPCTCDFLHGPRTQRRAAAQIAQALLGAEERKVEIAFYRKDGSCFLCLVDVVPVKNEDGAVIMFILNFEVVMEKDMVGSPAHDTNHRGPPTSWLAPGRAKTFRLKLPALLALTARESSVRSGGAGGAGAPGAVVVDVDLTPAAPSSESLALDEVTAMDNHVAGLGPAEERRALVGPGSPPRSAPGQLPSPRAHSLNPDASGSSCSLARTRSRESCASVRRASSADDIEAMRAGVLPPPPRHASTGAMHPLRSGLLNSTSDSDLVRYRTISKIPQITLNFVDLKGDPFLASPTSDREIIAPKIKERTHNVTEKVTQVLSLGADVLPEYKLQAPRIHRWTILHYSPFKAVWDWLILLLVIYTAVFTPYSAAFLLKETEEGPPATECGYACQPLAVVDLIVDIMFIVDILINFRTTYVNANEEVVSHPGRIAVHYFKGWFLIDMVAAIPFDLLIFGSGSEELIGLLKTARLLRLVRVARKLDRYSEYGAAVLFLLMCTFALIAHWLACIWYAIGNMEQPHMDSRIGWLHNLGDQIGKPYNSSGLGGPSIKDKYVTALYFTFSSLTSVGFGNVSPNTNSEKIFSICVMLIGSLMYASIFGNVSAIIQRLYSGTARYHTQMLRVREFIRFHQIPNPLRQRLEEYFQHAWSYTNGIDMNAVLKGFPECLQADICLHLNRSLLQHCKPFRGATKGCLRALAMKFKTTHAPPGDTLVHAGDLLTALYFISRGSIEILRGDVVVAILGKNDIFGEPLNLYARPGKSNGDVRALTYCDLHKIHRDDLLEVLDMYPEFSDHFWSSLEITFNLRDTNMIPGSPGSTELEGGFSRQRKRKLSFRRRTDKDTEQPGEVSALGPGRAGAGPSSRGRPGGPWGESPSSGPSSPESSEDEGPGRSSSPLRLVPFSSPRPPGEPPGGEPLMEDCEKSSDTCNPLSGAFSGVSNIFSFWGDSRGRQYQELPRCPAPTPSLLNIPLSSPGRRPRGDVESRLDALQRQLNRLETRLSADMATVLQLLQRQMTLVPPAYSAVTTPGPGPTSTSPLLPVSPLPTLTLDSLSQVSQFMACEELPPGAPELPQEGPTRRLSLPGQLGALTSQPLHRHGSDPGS

[5] = target: Protein kinase C alpha type (Homo sapiens, UniProt P17252); assay type: cell-based; conditions: sf9;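 note: inhibition of PKCalpha kinase activity measured in an enzyme assay with histone as the phosphorylation substrate; in other assays of this panel Not Active means under 50% inhibition at 10 µM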
[6] = target: T2, Thromboxane-A synthase (Homo sapiens, UniProt P24557); assay: biochemical; assay type: tissue-based, Platelet; conditions: platelet;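 note: enzyme inhibition assay with PGH2 supplied as substrate; in other assays of this panel Not Active means under 50% inhibition at 10 µM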
T2 sequence (P24557 whole entry): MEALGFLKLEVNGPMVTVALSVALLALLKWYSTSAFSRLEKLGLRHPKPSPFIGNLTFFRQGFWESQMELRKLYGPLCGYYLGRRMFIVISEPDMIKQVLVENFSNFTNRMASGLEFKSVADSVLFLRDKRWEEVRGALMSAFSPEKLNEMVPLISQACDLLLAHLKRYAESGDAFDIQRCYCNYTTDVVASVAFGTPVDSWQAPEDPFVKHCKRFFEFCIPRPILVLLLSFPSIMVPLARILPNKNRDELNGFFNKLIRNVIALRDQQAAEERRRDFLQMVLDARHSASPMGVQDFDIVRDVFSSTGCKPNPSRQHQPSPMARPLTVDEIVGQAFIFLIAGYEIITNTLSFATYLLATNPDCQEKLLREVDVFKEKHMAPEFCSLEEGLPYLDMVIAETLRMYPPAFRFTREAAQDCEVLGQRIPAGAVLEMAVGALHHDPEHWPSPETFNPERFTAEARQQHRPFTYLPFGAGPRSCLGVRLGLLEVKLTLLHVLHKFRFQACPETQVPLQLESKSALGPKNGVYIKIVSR

[7] = target: T3, Cathepsin G (Homo sapiens, UniProt P08311); assay type: tissue-based; conditions: neutrophil
T3 sequence (P08311 whole entry): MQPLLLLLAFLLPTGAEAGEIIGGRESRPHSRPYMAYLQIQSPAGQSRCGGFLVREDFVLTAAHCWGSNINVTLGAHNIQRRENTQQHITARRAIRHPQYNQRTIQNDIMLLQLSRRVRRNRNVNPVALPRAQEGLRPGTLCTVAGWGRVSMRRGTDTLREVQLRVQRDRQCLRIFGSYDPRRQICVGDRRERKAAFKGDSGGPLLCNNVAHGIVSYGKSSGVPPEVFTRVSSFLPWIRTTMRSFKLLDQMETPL

[8] = target: Cytochrome P450 2D6 (Homo sapiens, UniProt P10635); conditions: bti-tn-5b1-4; note: in other assays of this panel Not Active means under 50% inhibition at 10 µM
Chain of Cytochrome P450 2D6 (P10635 whole entry): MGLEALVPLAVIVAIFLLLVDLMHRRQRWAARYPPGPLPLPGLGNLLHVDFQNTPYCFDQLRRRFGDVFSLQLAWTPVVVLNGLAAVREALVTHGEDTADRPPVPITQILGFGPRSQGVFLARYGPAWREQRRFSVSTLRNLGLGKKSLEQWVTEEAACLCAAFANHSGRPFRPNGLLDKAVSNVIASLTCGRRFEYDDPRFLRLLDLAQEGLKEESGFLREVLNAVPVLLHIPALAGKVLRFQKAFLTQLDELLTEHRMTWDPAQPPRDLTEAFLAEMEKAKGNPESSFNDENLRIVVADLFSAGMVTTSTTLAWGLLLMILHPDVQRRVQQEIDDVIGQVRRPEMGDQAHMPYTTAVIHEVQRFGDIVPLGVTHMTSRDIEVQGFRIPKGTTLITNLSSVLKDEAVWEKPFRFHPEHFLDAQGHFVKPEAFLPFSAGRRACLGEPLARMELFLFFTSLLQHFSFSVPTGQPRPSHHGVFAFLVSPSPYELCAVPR

CN(C)C(=N)NC(=N)N [METFORMIN]
Not Active: IC50 [1] | IC50 [2] | Ki [2] | IC50 [3] | IC50 [4] | Ki [4] | IC50 [5] | IC50 [6] | IC50 [7] | IC50 [8] | Ki [8]

CC(C)(C)NCC(O)COc1cccc2c1CC(O)C(O)C2 (centres undefined) [NADOLOL]
Not Active: IC50 [1] | IC50 [2] | Ki [2] | IC50 [3] | IC50 [4] | Ki [4] | IC50 [5] | IC50 [6] | IC50 [7] | IC50 [8] | Ki [8]

C[C@]12CC[C@H]3[C@@H](CCC4=CC(=O)CC[C@@H]43)[C@@H]1CC[C@@H]2O [NANDROLONE]
Not Active: IC50 [1] | IC50 [2] | Ki [2] | IC50 [3] | IC50 [4] | Ki [4] | IC50 [5] | IC50 [6] | IC50 [7] | IC50 [8] | Ki [8]

CN(C)C(=O)Oc1cccc([N+](C)(C)C)c1.[Br-] [NEOSTIGMINE BROMIDE]
Not Active: IC50 [1] | IC50 [2] | Ki [2] | IC50 [3] | IC50 [4] | Ki [4] | IC50 [5] | IC50 [6] | IC50 [7] | IC50 [8] | Ki [8]

NC(=O)c1cccnc1 [NIACINAMIDE]
Not Active: IC50 [1] | IC50 [2] | Ki [2] | IC50 [3] | IC50 [4] | Ki [4] | IC50 [5] | IC50 [6] | IC50 [7] | IC50 [8] | Ki [8]

CS(=O)(=O)Nc1ccc([N+](=O)[O-])cc1Oc1ccccc1 [NIMESULIDE]
Not Active: IC50 [1] | IC50 [2] | Ki [2] | IC50 [3] | IC50 [4] | Ki [4] | IC50 [5] | IC50 [6] | IC50 [7] | IC50 [8] | Ki [8]

CN1C(=O)CN=C(c2ccccc2)c2cc([N+](=O)[O-])ccc21 [NIMETAZEPAM]
Not Active: IC50 [1] | IC50 [2] | Ki [2] | IC50 [3] | IC50 [4] | Ki [4] | IC50 [5] | IC50 [6] | IC50 [7] | IC50 [8] | Ki [8]

COc1ccc2c(c1OC)C(=O)O[C@@H]2[C@H]1c2c(cc3c(c2OC)OCO3)CCN1C [NOSCAPINE]
Not Active: IC50 [1] | IC50 [2] | Ki [2] | IC50 [3] | IC50 [4] | Ki [4] | IC50 [5] | IC50 [6] | IC50 [7] | IC50 [8] | Ki [8]

C[C@@H]1O[C@@H](O[C@H]2C[C@@H](O)[C@]3(CO)[C@H]4[C@H](O)C[C@]5(C)[C@@H](C6=CC(=O)OC6)CC[C@]5(O)[C@@H]4CC[C@]3(O)C2)[C@H](O)[C@H](O)[C@H]1O [OUABAIN]
Not Active: IC50 [1] | IC50 [2] | Ki [2] | IC50 [3] | IC50 [4] | Ki [4] | IC50 [5] | IC50 [6] | IC50 [7] | IC50 [8] | Ki [8]

NC(=O)N1c2ccccc2CC(=O)c2ccccc21 [OXCARBAZEPINE]
Not Active: IC50 [1] | IC50 [2] | Ki [2] | IC50 [3] | IC50 [4] | Ki [4] | IC50 [5] | IC50 [6] | IC50 [7] | IC50 [8] | Ki [8]

COc1ccnc(C[S+]([O-])c2nc3ccc(OC(F)F)cc3[nH]2)c1OC (centres undefined) [PANTOPRAZOLE]
Not Active: IC50 [1] | IC50 [2] | Ki [2] | IC50 [3] | IC50 [4] | Ki [4] | IC50 [5] | IC50 [6] | IC50 [7] | IC50 [8] | Ki [8]

CCc1ccc(CCOc2ccc(CC3SC(=O)NC3=O)cc2)nc1 (centres undefined) [PIOGLITAZONE]
Not Active: IC50 [1] | IC50 [2] | Ki [2] | IC50 [3] | IC50 [4] | Ki [4] | IC50 [5] | IC50 [6] | IC50 [7] | IC50 [8] | Ki [8]

CCCNC(C)C(=O)Nc1ccccc1C (centres undefined) [PRILOCAINE]
Not Active: IC50 [1] | IC50 [2] | Ki [2] | IC50 [3] | IC50 [4] | Ki [4] | IC50 [5] | IC50 [6] | IC50 [7] | IC50 [8] | Ki [8]

CCN(CC)CCNC(=O)c1ccc(N)cc1 [PROCAINAMIDE]
Not Active: IC50 [1] | IC50 [2] | Ki [2] | IC50 [3] | IC50 [4] | Ki [4] | IC50 [5] | IC50 [6] | IC50 [7] | IC50 [8] | Ki [8]
